Results: patent US10857149B2, “Liquid formulations of salts of 1-[2-(2,4-dimethylphenylsulfanyl)phenyl]-piperazine” (H. Lundbeck A/S, priority 2009, dated 2020)
“Also recorded” adds a separate entry of the source. Counter-ions that a name gives are not always drawn. Like-named read-outs stand apart in the source and are kept apart here. Each block holds one compound with its values, some of them ahead of it.

Tests used:
[1] = Room temperature (aqueous) solubility of salt forms; type: physicochemical; details: for aqueous solubility: concentration equivalent to free base; for Solubility: lactate forms, Table 1; for pH at the solubility value: printed in the solubility cell
[2] = Crystal form behaviour on exposure to water / aqueous slurry; type: physicochemical; details: exposed to water / aqueous slurry
[3] = room temperature, previously known salt forms, Table 2 (WO 2008/113359), cited from earlier work
[4] = depressed patients; cited from earlier work
[5] = test system: extracellular levels of serotonin, noradrenaline, dopamine and acetylcholine; details: rat brains; cited from earlier work
[6] = molecular target: serotonin transporter (Homo sapiens, UniProt P31645); details: cited from earlier work
[7] = molecular target: T1, 5-HT3 receptor (Homo sapiens, UniProt P46098); details: listed as compound I; cited from earlier work
T1 sequence (P46098 24-478): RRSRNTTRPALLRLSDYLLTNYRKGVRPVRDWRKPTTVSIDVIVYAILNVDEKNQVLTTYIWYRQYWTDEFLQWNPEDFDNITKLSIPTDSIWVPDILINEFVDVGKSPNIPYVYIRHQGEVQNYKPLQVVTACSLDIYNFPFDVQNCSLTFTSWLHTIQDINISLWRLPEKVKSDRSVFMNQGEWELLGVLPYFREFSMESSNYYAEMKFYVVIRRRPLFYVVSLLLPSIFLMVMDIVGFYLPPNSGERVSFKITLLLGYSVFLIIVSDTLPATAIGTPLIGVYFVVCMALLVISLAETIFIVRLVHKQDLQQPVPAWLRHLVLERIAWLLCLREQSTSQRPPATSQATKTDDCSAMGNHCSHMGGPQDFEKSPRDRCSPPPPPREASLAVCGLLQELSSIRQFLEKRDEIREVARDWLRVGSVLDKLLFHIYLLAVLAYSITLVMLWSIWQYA

serotonin transporter, sequence (P31645 whole entry): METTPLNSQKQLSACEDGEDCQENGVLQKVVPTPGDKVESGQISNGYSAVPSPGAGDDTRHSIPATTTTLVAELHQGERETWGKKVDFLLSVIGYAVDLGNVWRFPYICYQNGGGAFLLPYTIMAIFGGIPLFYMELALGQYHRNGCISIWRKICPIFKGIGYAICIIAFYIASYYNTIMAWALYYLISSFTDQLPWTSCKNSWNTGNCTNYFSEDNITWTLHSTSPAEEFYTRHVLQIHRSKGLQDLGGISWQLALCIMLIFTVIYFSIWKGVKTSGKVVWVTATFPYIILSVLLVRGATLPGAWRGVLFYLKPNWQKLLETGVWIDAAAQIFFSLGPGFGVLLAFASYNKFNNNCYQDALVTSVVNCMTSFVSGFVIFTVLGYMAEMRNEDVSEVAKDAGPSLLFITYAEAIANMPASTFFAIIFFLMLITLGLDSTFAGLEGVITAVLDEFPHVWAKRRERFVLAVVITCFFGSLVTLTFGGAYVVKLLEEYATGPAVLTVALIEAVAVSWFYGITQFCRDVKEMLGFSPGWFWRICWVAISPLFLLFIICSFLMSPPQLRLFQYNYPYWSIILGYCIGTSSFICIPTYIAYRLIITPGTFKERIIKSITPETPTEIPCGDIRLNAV

aqueous solubility [1]: 26 mg/mL
Solubility ([1]; room temperature): 26 mg base/mL
pH at the solubility value ([1]; room temperature): 5.2
Structure (SMILES): C[C@H](O)C(=O)O.Cc1ccc(Sc2ccccc2N2CCNCC2)c(C)c1 [L-lactate MH2, 1-[2-(2,4-dimethyl-phenylsulfanyl)-phenyl] Piperazine, L-Lactate]

Solubility, bound given for a form that could not be measured ([1]; room temperature, MH1 transforms into MH2 in aqueous slurry): na (>26) mg base/mL
Structure (SMILES): C[C@H](O)C(=O)O.Cc1ccc(Sc2ccccc2N2CCNCC2)c(C)c1 [L-lactate MH1, 1-[2-(2,4-dimethyl-phenylsulfanyl)-phenyl] Piperazine, L-Lactate]
transformation of crystal form in water ([2]; listed as MH1): transforms into the MH2 in aqueous slurry

Structure (SMILES): CC(O)C(=O)O.Cc1ccc(Sc2ccccc2N2CCNCC2)c(C)c1 [DL-lactate MH, 1-[2-(2,4-dimethyl-phenylsulfanyl)-phenyl] Piperazine, DL-Lactate]
transformation of crystal form in water [2]: transformed into the beta form in aqueous slurry

Structure (SMILES): Cc1ccc(Sc2ccccc2N2CCNCC2)c(C)c1 [L-(+)-tartrate, 1-[2-(2,4-dimethyl-phenylsulfanyl)-phenyl] piperazine]
Solubility [3]: ~0.4 mg base/mL

Structure (SMILES): Cc1ccc(Sc2ccccc2N2CCNCC2)c(C)c1 [HCl, 1-[2-(2,4-dimethyl-phenylsulfanyl)-phenyl] piperazine]
Solubility [3]: 3.0 mg base/mL

Structure (SMILES): Cc1ccc(Sc2ccccc2N2CCNCC2)c(C)c1 [Sulphate, 1-[2-(2,4-dimethyl-phenylsulfanyl)-phenyl] piperazine]
Solubility [3]: ~0.1 mg base/mL

Structure (SMILES): Br.Cc1ccc(Sc2ccccc2N2CCNCC2)c(C)c1 [HBr addition salt]
level of sleep and sexually related adverse events [4]: surprisingly low level

Structure (SMILES): CC(O)C(=O)O.Cc1ccc(Sc2ccccc2N2CCNCC2)c(C)c1 [DL-lactate α, 1-[2-(2,4-dimethyl-phenylsulfanyl)-phenyl] piperazine, DL-Lactate]
transformation of crystal form in water ([2]; listed as α form): transformed into the β form in the aqueous slurry

Structure (SMILES): Cc1ccc(Sc2ccccc2N2CCNCC2)c(C)c1 [Nitrate, 1-[2-(2,4-dimethyl-phenylsulfanyl)-phenyl] piperazine]
Solubility [3]: ~0.8 mg base/mL

Structure (SMILES): Cc1ccc(Sc2ccccc2N2CCNCC2)c(C)c1 [D-(−)-tartrate, 1-[2-(2,4-dimethyl-phenylsulfanyl)-phenyl] piperazine]
Solubility [3]: ~0.4 mg base/mL

Structure (SMILES): Cc1ccc(Sc2ccccc2N2CCNCC2)c(C)c1 [Maleate, 1-[2-(2,4-dimethyl-phenylsulfanyl)-phenyl] piperazine]
Solubility [3]: ~1 mg base/mL

Structure (SMILES): Cc1ccc(Sc2ccccc2N2CCNCC2)c(C)c1 [Fumarate, 1-[2-(2,4-dimethyl-phenylsulfanyl)-phenyl] piperazine]
Solubility [3]: 0.4 mg base/mL

Structure (SMILES): Cc1ccc(Sc2ccccc2N2CCNCC2)c(C)c1 [Compound I, 1-[2-(2,4-dimethylphenylsulfanyl)phenyl]piperazine]
extracellular levels of serotonin, noradrenaline, dopamine and acetylcholine [5]: increase
action at the serotonin transporter [6]: inhibition
action at the serotonin transporter ([6]; listed as compound I): inhibitor
action at the 5-HT3 receptor [7]: antagonist; also recorded: antagonism
Solubility ([3]; listed as Crystalline base): 0.1 mg base/mL

Structure (SMILES): Cc1ccc(Sc2ccccc2N2CCNCC2)c(C)c1 [HBr, α-form, 1-[2-(2,4-dimethyl-phenylsulfanyl)-phenyl] piperazine]
Solubility [3]: 2.0 mg base/mL

Structure (SMILES): Cc1ccc(Sc2ccccc2N2CCNCC2)c(C)c1 [Phosphate, 1-[2-(2,4-dimethyl-phenylsulfanyl)-phenyl] piperazine]
Solubility [3]: ~1 mg base/mL

aqueous solubility [1]: 8 mg/mL
Solubility ([1]; room temperature): 8 mg base/mL
pH at the solubility value ([1]; room temperature): 6
Structure (SMILES): CC(O)C(=O)O.Cc1ccc(Sc2ccccc2N2CCNCC2)c(C)c1 [DL-lactate β, 1-[2-(2,4-dimethyl-phenylsulfanyl)-phenyl] Piperazine, DL-Lactate]

Structure (SMILES): Cc1ccc(Sc2ccccc2N2CCNCC2)c(C)c1 [Meso-tartrate, 1-[2-(2,4-dimethyl-phenylsulfanyl)-phenyl] piperazine]
Solubility [3]: ~0.7 mg base/mL

Structure (SMILES): C[C@H](O)C(=O)O.Cc1ccc(Sc2ccccc2N2CCNCC2)c(C)c1 [L-lactate AH1, 1-[2-(2,4-dimethyl-phenylsulfanyl)-phenyl] Piperazine, L-Lactate]
transformation of crystal form in water ([2]; listed as AH1): transforms into monohydrate when exposed to water

Structure (SMILES): Cc1ccc(Sc2ccccc2N2CCNCC2)c(C)c1 [HCl, MH, 1-[2-(2,4-dimethyl-phenylsulfanyl)-phenyl] piperazine]
Solubility [3]: 2.0 mg base/mL

Structure (SMILES): Cc1ccc(Sc2ccccc2N2CCNCC2)c(C)c1 [HBr, β-form, 1-[2-(2,4-dimethyl-phenylsulfanyl)-phenyl] piperazine]
Solubility [3]: 1.2 mg base/mL

Structure (SMILES): CC(O)C(=O)O.Cc1ccc(Sc2ccccc2N2CCNCC2)c(C)c1 [DL-lactate γ, 1-[2-(2,4-dimethyl-phenylsulfanyl)-phenyl] Piperazine, DL-Lactate]
transformation of crystal form in water ([2]; listed as γ form): transforms into the beta form in aqueous slurry

Structure (SMILES): Cc1ccc(Sc2ccccc2N2CCNCC2)c(C)c1 [Mesylate, 1-[2-(2,4-dimethyl-phenylsulfanyl)-phenyl] piperazine]
Solubility [3]: >45 mg base/mL
